The nature of this series: Agilent ZORBAX 300 SB-C18, 150 × 1 mm, 3.5 µm; A: water + 0.01% heptafluorobutyric acid; B: acetonitrile + 0.01% heptafluorobutyric acid; gradient (min/%B) 0/0 100/90. The settings on record: stereoisomer not certain.
For `c1ccc2c(c1)CCN2`, the LC retention time is 7.26 min.
In the case of `CC(=O)Nc1cccc(C(C)=O)c1`, the LC retention time amounted to 8.35 min.
The figure for `NCCCCC(NC(CCc1ccccc1)C(=O)[O-])C(=O)N1CCCC1C(=O)O` (centres undefined) is 8.09 min.
The same measure for `CCC(C)C(NC(=O)C1CCCN1)C(=O)O` (centres undefined): 7.86 min; for `CN(C)Cc1c[nH]c2ccccc12`: 7.66 min.
The figure for `Nc1ccc2c(c1)nc(-c1ccccc1)c1cc(N)ccc12` is 9.3 min; for `O=c1oc2ccccc2c2nc(-c3ccncc3)ncc12` it is 12.2 min; for `CC(=O)N1CCc2[nH]c3ccccc3c2C1` it is 10.2 min.
For `CN(C)CCN(C)CCN(C)CCN(C)C`, the LC retention time amounted to 7.61 min.
The figure for `CNCCCCCCNC` is 7.03 min; for `Cn1c(=O)c2c(-c3ccccc3)n(Cc3ccccc3)cc2n(C)c1=O` it is 14.3 min.
The same measure for `COC(=O)Cc1ccc(N)cc1N`: 7.24 min; for `O=C(Oc1cccc2cccnc12)c1ccccc1`: 13.8 min.
The same measure for `CCCCCCCCN(CCCCCCCC)CCCCCCCC`: 19.5 min; for `O=C1CCCCCN1CP(=O)(O)CCc1ccccc1`: 9 min; for `c1ccc(Cc2nn[nH]n2)cc1`: 8.45 min.
In the case of `COc1ccc(N2CC(C(=O)N3CCC(Cc4ccccc4)CC3)CC2=O)cc1` (centres undefined), the LC retention time was 14.5 min.
The figure for `CN1CCN(c2nc(N)cc(=O)[nH]2)CC1` is 5.8 min.
As to `CN1C2CCC1C(C(=O)O)C(OC(=O)c1ccccc1)C2` (centres undefined), the LC retention time is 8.54 min.
Take `CCCCCCCCCCCCCCCCCCNC`: the LC retention time was 19 min.
Take `OC1CCCc2c1[nH]c1ccccc21` (centres undefined): the LC retention time came out at 11.4 min.
The figure for `Cc1nc(N)cc(=O)[nH]1` is 2.75 min; for `C1CCCNCC1` it is 6.61 min; for `CC1=NC(=O)NC(C2CC=CCC2)C1C(=O)OC(C)C` (centres undefined) it is 12.3 min.
The same measure for `CCN(CC)c1ccc(C=Nc2ccccc2)c(O)c1`: 11.5 min; for `O=C(Nc1ccc(C(=O)c2ccccc2)cc1)c1ccc(-c2ccccc2)cc1`: 17.8 min; for `c1ccc(CCNc2ccncn2)nc1`: 7.03 min.
The figure for `C1CCC(NC2CCCCC2)CC1` is 9.69 min.
For `CC(=O)NNc1nc(C)cc(C)n1`, the LC retention time was found to be 6.5 min.
The same measure for `CCN1CCNCC1`: 6.67 min; for `CCOc1cc(C(=O)N(CC)c2ccccc2)cc(OCC)c1OCC`: 15.9 min; for `COc1ccc(Oc2ccc(-n3c(C)ccc3C)cc2)cc1`: 18.9 min.
The same measure for `CCCc1cc(C(=O)O)ccn1`: 6.01 min.
Turning to `CC(C)(C)c1ccc(-c2nc(NCc3cccnc3)c3ccccc3n2)cc1`, the LC retention time was determined as 10.9 min.
The figure for `CN(C)c1ccc(C(=O)N2CCCC2)cc1` is 10.4 min; for `c1ccc(N2CCNCC2)cc1` it is 8 min; for `Cc1ccc(C(=O)NCc2ccco2)cc1` it is 11.7 min.
The same measure for `CC1CCCCN1C(=O)c1ccccc1NC(=O)c1ccco1` (centres undefined): 12.4 min; for `S=c1nc(C2CCCCC2)[nH][nH]1`: 8.76 min; for `Cc1ccc(-c2cnc3ccccc3n2)cc1`: 16.3 min.
The same measure for `Cc1ccc(N2C(=O)NC(=O)C(=Cc3cc(C)n(-c4ccccc4)c3C)C2=O)cc1`: 15 min.
Consider `CCc1cccc2ccn(Cc3ccccc3)c12`, for which the LC retention time is 18.4 min.
As for `Cc1nn(-c2ccc(NC(=O)c3ccco3)cc2)c(=O)c2ccccc12`, the LC retention time stood at 12 min.
Regarding `CN(C)CCCNC(=O)C(=O)NC1CC1`, the LC retention time came to 6.89 min.
The figure for `COc1ccc2c(c1C)CCC1=C(C)C(=O)CCC12C` (centres undefined) is 17 min; for `NC(=S)NC(N)=S` it is 6.5 min.
As for `Cc1[nH][nH]c(=O)c1CCC(=O)NN=Cc1c(C)[nH]c2ccccc12`, the LC retention time came to 8.93 min.
The figure for `Nc1cccc2cc(-c3ccccc3)oc12` is 14.5 min; for `NC(=O)c1cc2c(ccc3ccccc32)oc1=O` it is 11.1 min; for `Cn1c(O)c(Cc2ccc(OCc3ccccc3)cc2)c(=O)n(C)c1=O` it is 15 min.
The figure for `O=C1CN(C(=O)CCCc2c[nH]c3ccccc23)c2ccccc2N1` is 12 min.
The figure for `COc1ccc(NC(C)c2ccccc2)cc1` (centres undefined) is 10.7 min; for `CCn1c(C)cc(C=O)c1C` it is 9.93 min.
Regarding `CN1CCN(C(=O)c2cc(C(C)(C)C)cc(C(C)(C)C)c2)CC1`, the LC retention time was 11.6 min.
As to `CN(C)CCOC(c1ccccc1)c1ccccc1`, the LC retention time came to 10.9 min.
The figure for `COc1ccc(CN(CCN(C)C)c2ccccn2)cc1` is 10.1 min; for `COC(=O)CCN1CCCCC1` it is 7.02 min; for `CCCCN1CNC(=S)N(c2ccccc2C)C1` it is 12.6 min.
The same measure for `CCN(CC)c1nc(-c2ccncc2)nc2ccccc12`: 10.2 min; for `CCC1(c2ccccc2)C(=O)NC(=O)N(C)C1=O` (centres undefined): 11.3 min.
As for `O=C(Cn1cnc2ccccc2c1=O)NN=Cc1cnc2ccccc2n1`, the LC retention time amounted to 10.1 min.
Turning to `Cc1nn(CC(=O)NC2CC(C)(C)NC(C)(C)C2)c(=O)c2ccccc12`, the LC retention time worked out at 8.35 min.
`C[N+]1(CC=C2COCO2)CCCCC1`: the LC retention time amounted to 7.48 min.
`CCCCCCCC(N)=O`: the LC retention time worked out at 11 min.
The figure for `O=C(Nc1ccc(Nc2ccccc2)cc1)C(c1ccccc1)c1ccccc1` is 17.1 min; for `CN1CCC(=O)C2CCCCC21` (centres undefined) it is 7.15 min; for `O=C(NCc1cccnc1)c1cccc2ccccc12` it is 9.17 min.
The same measure for `CCN(CC)CCN(CC)CC`: 7.19 min; for `O=C(O)CNC(CO)(CO)CO`: 1.66 min; for `CCOC(=O)c1c(-c2ccccc2)c[nH]c1C`: 13.4 min.
The same measure for `CCN(CC)CC`: 7.12 min.
Take `Cc1ccc(C(=O)Nc2ccccc2C(=O)N2CCN(C)CC2)cc1`: the LC retention time was 8.88 min.
In the case of `Nc1cccc(N2CCOCC2)c1`, the LC retention time is 7.53 min.
The same measure for `CN(C)c1nc(N(C)C)nc(N(C)C)n1`: 9.15 min.
In the case of `Cn1c2c(c(=O)n(C)c1=O)C(CC(=O)O)C(=O)N2` (centres undefined), the LC retention time worked out at 6.06 min.
With `O=C(O)c1ccc(=O)[nH]c1`, the LC retention time came out at 4.42 min.
With `O=C(O)CC(C(=O)O)c1c[nH]c2ccccc12` (centres undefined), the LC retention time stood at 8.46 min.
Take `Cc1ccc2[nH]c(=O)c(=O)[nH]c2c1C`: the LC retention time was 8.13 min.
As to `O=C(O)Cc1c(C(=O)O)[nH]c2cc(C(=O)O)ccc12`, the LC retention time came out at 7.47 min.
The same measure for `Cc1cccc(C(O)(C(=O)NN(C(=O)Nc2ccccc2)c2ccccc2)c2cccc(C)c2)c1`: 16.3 min.
The figure for `CC1(C)OCOC1=CC[N+](C)(C)C` is 7.65 min; for `CCCNC(=O)N1CCCC(C(N)=O)C1` (centres undefined) it is 6.98 min.
`Cc1ccccc1N1C(=O)c2ccc(C(=O)O)cc2C1=O`: the LC retention time was 12 min.
With `CCCCCCCCCCCCNC`, the LC retention time amounted to 13.5 min.
The figure for `CC1=Nc2ccccc2Sc2ccccc21` is 14.5 min; for `Cc1cccc(N(C)C)c1` it is 8.26 min; for `Cc1cccc2cc[nH]c12` it is 12.6 min.
The same measure for `CN(C)Cc1c(N)cc2ccccc2c1-c1ccccc1`: 8.82 min.
As to `Cn1c(=S)[nH]c2ccccc21`, the LC retention time was 9.31 min.
Take `NC(=O)C1(N2CCCCC2)CCN(C(=O)C2CCCCC2)CC1`: the LC retention time stood at 8.4 min.
The same measure for `CC1N(CCC(N)=O)c2ccccc2C1(C)C` (centres undefined): 11.8 min; for `Nc1ccc2c(c1)COc1ccccc1O2`: 10.5 min.
The same measure for `CCOc1nc(N(c2ccccc2)c2ccccc2)[nH]c(=O)n1`: 11.7 min; for `CCN(CC)CCCO`: 6.01 min; for `CN(C)NC1=CC(=O)CC(c2ccccc2)C1` (centres undefined): 10.4 min.
`Cc1ccc(N2NC(C)(CC(C)C)NC2=S)cc1` (centres undefined): the LC retention time came out at 15.1 min.
The same measure for `Nc1cccc2c1CCC2`: 8.43 min; for `O=P(O)(O)CN(CP(=O)(O)O)CP(=O)(O)O`: 1.08 min.
The same measure for `c1ccn(-c2ccc3cn[nH]c3c2)c1`: 11.8 min; for `CCCCCC(=O)OC1(C(C)=O)CCC2C3CCC4=CC(=O)CCC4(C)C3CCC21C` (centres undefined): 21.2 min.
With `c1csc(-c2cnc3ccccc3n2)c1`, the LC retention time came to 14.3 min.
The same measure for `CC12CCC(O)CC1=CCC1C2CCC2(C)C(N)CCC12` (centres undefined): 8.88 min.
For the compound `COc1ccc(N=Nc2c(N)n[nH]c2N)cc1`, the LC retention time was found to be 9.61 min.
`CCCCc1c(O)c2ccccc2n(-c2ccccc2)c1=O`: the LC retention time was determined as 14.5 min.
The same measure for `CCOc1ccc(Cc2c(O)n(-c3ccc(CC)cc3)c(=O)[nH]c2=O)cc1`: 14.4 min; for `CCN1CC(CCN2CCOCC2)C(c2ccccc2)(c2ccccc2)C1=O` (centres undefined): 9.72 min.
With `NCC1CCCCN1` (centres undefined), the LC retention time was determined as 6.88 min.
The figure for `NC1CCOCC1` is 4.24 min; for `O=C(C=Cc1ccccc1)c1ccc(O)cc1O` it is 14.3 min.

For the origin of these results see the RepoRT retention time repository.
